# Measurements: patent publication US20230372301A1, “TREATMENTS WITH NIROGACESTAT” (SpringWorks Therapeutics, Inc., priority 2022, published 2023)
# Legend:
# [1] = tested on: progressing desmoid tumors/aggressive fibromatosis (DT/AF); assay type: in vivo
# Source text: A Phase 3, double-blind, placebo-controlled study is being conducted to determine the efficacy and safety of nirogacestat dihydrobromide in participants with progressing desmoid tumors. A Phase 1 solid tumor study provided preliminary efficacy (Messersmith, W., et al., “A Phase I, dose-finding study in patients with advanced solid malignancies of the oral y-secretase inhibitor PF-03084014,” Clin. Cancer Res., 21:60-7 (2015)), including long-term durable responses and safety of nirogacestat in desmoid participants (Villalobos, V. M., et al., “Long-Term Follow-Up of Desmoid Fibromatosis Treated with PF-03084014, an Oral Gamma Secretase Inhibitor, Ann. Surg. Oncol., 25:768-75 (2018)). These encouraging results lead to a Phase 2 study in participants with progressing desmoid tumors (Kummar, S., et al., “Clinical Activity of the γ-Secretase Inhibitor PF-03084014 in Adults with Desmoid Tumors (Aggressive Fibromatosis), J. Clin. Oncol., 35:1561-69 (2017)). […] Importantly, participants in the responder group had failed previous systemic therapies (imatinib or sorafenib) indicating a need for alterative therapeutic options for this patient population.
# Overall Design: The Phase 3 study will be a multi-center, randomized, double-blind, placebo-controlled, event-driven to compare the efficacy, safety, and tolerability of nirogacestat and placebo in adult participants with progressing DT/AF. This study will consist of 2 phases, a double-blind and an optional open-label extension (OLE) phase.
# Following disease progression (confirmed by central review using RECIST v1.1), or completion of the double-blind phase (once the required number of events have been observed and the primary PFS analysis has been completed), participants' treatment assignment will be unblinded, and if eligible, participants will have the option to enroll in the optional OLE phase.
# Type of Participant and Disease Characteristics: • 1. Participant has DT/AF that has progressed by ≥20% as measured by RECIST v1.1 within the 12-month period prior to first dose of study treatment. • 2. Participant has: • a. Newly diagnosed, measurable progressing DT/AF that is not amenable to surgical resection or radiation therapy; • OR • b. Recurrent, progressing DT/AF following CR to initial therapy; • OR • c. Preexisting DT/AF and has previously received therapy and the residual tumor has progressed. • 3. Participant agrees to provide archival or new tumor tissue for confirmation of disease. • 4. If participant was previously treated with an investigational therapy for treatment of DT/AF, participant must have completed prior therapy at least 28 days prior to signing informed consent. All toxicities from prior therapy must resolve to Grade 1 or baseline. • 5. Participants who are receiving nonsteroidal anti-inflammatory drugs (NSAIDs) as treatment for conditions other than DT/AF must be receiving them prior to the observed progression (inclusion criteria 1) for: • a. Chronic scheduled daily use (defined as stable for 28 days prior to signing informed consent); or • b. Occasional use (defined as ≤3 days per week) for the treatment of pain or as an anti-inflammatory in licensed conditions such as headache, arthritis, etc. • c. Participant has an Eastern Cooperative Oncology Group (ECOG) performance status ≤2 at screening. • 6. Participant has adequate organ and bone marrow function as defined by the following Screening laboratory values: • a. Absolute neutrophil count ≥1500/μL; • b. Platelets ≥100×10^3/μL; • c. Hemoglobin ≥9 g/dL; • d. Total bilirubin ≤1.5×upper limit of normal (ULN) (isolated bilirubin >1.5×ULN is acceptable if bilirubin is fractionated and direct bilirubin <35%); • e. Aspartate aminotransferase (AST) (serum glutamic oxaloacetic transaminase)/alanine aminotransferase (ALT) (serum glutamic pyruvate transaminase)≤2×ULN; and • f. […] Participant can swallow tablets and has no gastrointestinal conditions affecting absorption. […]
# [2] = tested on: progressing desmoid tumors; conditions: Phase 2, participants with progressing desmoid tumors; cited from earlier work
# [3] = 150 mg twice daily, positive change indicates improvement
# [4] = change from Baseline in EORTC, P: <0.001
smiles,measurement,setting,value
"CCC[C@H](N[C@H]1CCc2cc(F)cc(F)c2C1)C(=O)Nc1cn(C(C)(C)CNCC(C)(C)C)cn1 (single isomer, unassigned) [nirogacestat]","mean change from Baseline in EORTC, Global health status/Quality of life (GHS/QoL)",[1]; [3],4.493
same,"mean change from Baseline in EORTC, QLQ30 Role Functioning",[1]; [3],11.133
same,"mean change from Baseline in EORTC, QLQC30 Physical Functioning",[1]; [3],8.523
same,"LS mean difference (between nirogacestat and placebo), Global health status/Quality of life (GHS/QoL)","[1]; change from Baseline in EORTC, P: 0.007",10.515
same,"LS mean difference (between nirogacestat and placebo), QLQ30 Role Functioning",[1]; [4],16.714
same,"LS mean difference (between nirogacestat and placebo), QLQC30 Physical Functioning",[1]; [4],13.154
same,most frequent adverse reactions requiring a dose reduction or interruption,[1]; in vivo,"diarrhea, rash maculo-papular, hypophosphatemia, stomatitis, folliculitis, and fatigue"
same,"progression-free survival (PFS), hazard ratio (HR)","[1]; nirogacestat 150 mg twice daily over placebo, <0.001",0.29
same,objective response rate (ORR),"[1]; nirogacestat 150 mg twice daily versus placebo, p<0.001",statistically significant improvements
same,four different quality of life (QoL) assessments and patient-reported outcomes (PROs),"[1]; nirogacestat 150 mg twice daily versus placebo, p<0.001 for each",statistically significant improvements
same,participants progressing while on therapy,[2],no participants progressing while on therapy
same,response rate,[2],29%
same,tumor shrinkage as measured by magnetic resonance imaging (MRI),[2],significant tumor shrinkage
